The values that follow come from PubChem BioAssay AID2060351 (Molecular Pharmacology Branch, DTP, NCI, 2025).

A word on the pIC50: it is the negative decadic logarithm of the IC50, by convention in mol/L. Usually viability, T/C stands for the ratio of treated to control.

This test deals with 521955-158-R7-J2-PDC spheroids, viability % test/control. Briefly: Anticancer human tumor 521955-158-R7-J2-PDC patient-derived pancreatic carcinoma cell line growth inhibition [TAK]. Conditions: spheroids with HUVEC and MSC; for viability, T/C: stronger effect = lower value. An excerpt: Combinatorial screen of targeted agents with TAK-243 and ipatasertib in multi-cell type tumor spheroids
A high-throughput screen of multi-cell type tumor spheroids was designed to identify active combinations of targeted small molecules and TAK-243 or ipatasertib. Complex spheroids include a stromal component modeled by human endothelial cells (HUVEC) and fibroblasts modeled by human mesenchymal stem cells (MSCs). The concentration ranges selected for each drug and investigational agent were based upon clinically achievable concentrations if the clinical Cmax of the agent was known.
Compounds. The drugs and investigational agents: TAK-243 (785004), ipatasertib (767898), everolimus (733504), selumetinib (741078), bortezomib (756655), trametinib (758246), ixazomib (758254), vemurafenib (761431), dabrafenib (764134), sapanisertib (764658), alpelisib (765974), and copanlisib (816437), were obtained from the National Cancer Institute (NCI) Developmental Therapeutics Program Chemical Repository. The FDA-approved anticancer drug set is available from the NCI Developmental Therapeutics Program. […] The stock solutions were prepared in dimethyl sulfoxide (DMSO, Sigma-Aldrich, St. Louis, MO, cat. D2650) at 800-fold the tested concentration and stored at -70 degrees C prior to their use. All drugs and investigational agents were tested over a range starting from a high concentration at or near the clinical Cmax and decreasing in half-log increments. If the clinical Cmax for an agent had not been determined, the highest concentration tested was 10 microM.
NCI60 Cell Culture. NCI60 cell lines were obtained from the NCI Developmental Therapeutics Program Tumor Repository. For each lot of cells, the Repository performed Applied Biosystems AmpFLSTR Identifiler testing with PCR amplification to confirm consistency with the published Identifier STR profile for each cell line. Cells were kept in continuous culture for no more than 20 passages. The optimal seeding densities for each of the cell lines at each time point assessed were determined prior to performing the concentration response studies. Briefly, the NCI60 human tumor lines were grown as monolayers in RPMI 1640 medium supplemented with 10% FBS and 2 mmol/L L-glutamine.
An additional 2 lines were from the NCI60 cell line panel including melanomas, MALME-3M and SK-MEL-2. Pooled donor human umbilical vein endothelial cells (HUVEC, Lonza, cat. CC-2519) and human mesenchymal stem cells (hMSC, Lonza, cat. PT-2501) were purchased from Lonza (Walkersville, MD).
PDMR cell lines were grown in complete medium (DC medium): Dulbecco's modified Eagle's medium (DMEM)/F12 supplemented with 5% fetal bovine serum (FBS), 2 mM L-glutamine, 100 U/mL penicillin and 100 µg/ml streptomycin, 0.4 µg/ml hydrocortisone, 10 ng/ml epidermal growth factor (EGF) recombinant human protein, 24 µg/mL adenine, and 0.1 mg/mL primocin. During culture from frozen stock vials, PDMR cells were cultured in the same medium containing 10 µM Y-27632 (see Table 3). The PDCs were cultured in complete DMEM/F12 media without 10 microM Y-27632 dihydrochloride for at least two passages prior to the screen. The pooled donor HUVEC and hMSC were cultured in endothelial cell growth medium 2 (PromoCell, Heidelberg, Germany, cat. C-22011) and mesenchymal stem cell growth medium 2 (PromoCell, cat. C-28009), respectively. For all experiments, HUVEC and hMSC were used at passages </=5.
For the pre-screen, cell seeding densities were determined from a titration spanning the range from 5,000 to 313 cells per well. The mct-spheroids including 60% malignant cells, 25% HUVEC and 15% MSC dispensed as a mixture into U-bottom Ultra-Low Attachment 384-well plates (Corning, NY)
High-throughput Drug Combination Screening.
Prior to their inoculation into 384-well plates, malignant cells, HUVEC, and hMSC were removed from T flasks using TrypLE express (Thermo Fisher Scientific, cat. 12605036) and harvested by centrifugation for 5 min at 233 x g. […]

SMILES strings stand for the structures. pIC50: −log10 of the molar value. Values joined by “and” are separate entries in the source; they are usually repeats but may differ in a detail not shown here. Identical values can stand only once.
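Note: spheroids exposed to compound for 7 days before readout.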

`CC(=O)Nc1cccc(-n2c(=O)n(C3CC3)c(=O)c3c(Nc4ccc(I)cc4F)n(C)c(=O)c(C)c32)c1` + CC(C)NCC(C(=O)N1CCN(c2ncnc3c2C(C)CC3O)CC1)c1ccc(Cl)cc1: the pIC50 by setting is: (curve of first compound, second compound 0.3 µM) 8.87; (curve of first compound, second compound 0.949 µM) 8.85; (curve of first compound, second compound 3 µM) 9.10; (curve of first compound, second compound 9.49 µM) 9.12; (curve of first compound, second compound 30 µM) 9.10. The viability, T/C was 98.9% (second compound 0.3 µM, first compound 94.9 pM); 79.8% (second compound 0.3 µM, first compound 0.0003 µM); 51.1% (second compound 0.3 µM, first compound 0.000949 µM); 39.4% (second compound 0.3 µM, first compound 0.003 µM); 23.8% (second compound 0.3 µM, first compound 0.00949 µM); 11.7% (second compound 0.3 µM, first compound 0.03 µM). Moreover, the viability, T/C was 106% (second compound 0.949 µM, first compound 94.9 pM); 83.6% (second compound 0.949 µM, first compound 0.0003 µM); 50.4% (second compound 0.949 µM, first compound 0.000949 µM); 39.7% (second compound 0.949 µM, first compound 0.003 µM); 24.9% (second compound 0.949 µM, first compound 0.00949 µM); 10.5% (second compound 0.949 µM, first compound 0.03 µM). The viability, T/C reads like this: (second compound 3 µM, first compound 94.9 pM) 99.6%; (second compound 3 µM, first compound 0.0003 µM) 61.7%; (second compound 3 µM, first compound 0.000949 µM) 50.2%; (second compound 3 µM, first compound 0.003 µM) 31.8%; (second compound 3 µM, first compound 0.00949 µM) 23%; (second compound 3 µM, first compound 0.03 µM) 8.8%. In addition, the viability, T/C reads like this: (second compound 9.49 µM, first compound 94.9 pM) 82.7%; (second compound 9.49 µM, first compound 0.0003 µM) 68.7%; (second compound 9.49 µM, first compound 0.000949 µM) 40.3%; (second compound 9.49 µM, first compound 0.003 µM) 32.1%; (second compound 9.49 µM, first compound 0.00949 µM) 25%; (second compound 9.49 µM, first compound 0.03 µM) 7.94%. For the same compound, the viability, T/C (second compound 30 µM, first compound 94.9 pM) was 93.1%; the viability, T/C (second compound 30 µM, first compound 0.0003 µM) is 61.4%; the viability, T/C (second compound 30 µM, first compound 0.000949 µM) is 44.3%; the viability, T/C (second compound 30 µM, first compound 0.003 µM) was 35.5%; the viability, T/C (second compound 30 µM, first compound 0.00949 µM) is 20.4%; the viability, T/C (second compound 30 µM, first compound 0.03 µM) was 4.94%.
As to `CC(C)n1nc(-c2ccc3oc(N)nc3c2)c2c(N)ncnc21`, the viability, T/C (compound 0.000316 µM) was 78.4% and 94.7%; the viability, T/C (compound 0.001 µM) is 79.4% and 104%; the viability, T/C (compound 0.00316 µM) is 81.2% and 82.3%; the viability, T/C (compound 0.01 µM) is 86.4% and 90.7%; the viability, T/C (compound 0.0316 µM) is 76% and 109%; the viability, T/C (compound 0.1 µM) is 71.2% and 53.7%. The negative logarithm of the IC50 (pIC50) (curve of compound) was below 7.00.
